The numbers were not newly measured in patent publication US20110053879A1, “[…] AND AMRUBICIN TO TREAT LUNG CANCER” (priority 2008, published 2011), which cites them from elsewhere.

The subject of series [1] is DNA.
The conditions of series [2]: phase II trial.
For series [3] the following is noted: preclinical studies.
The subject of series [4] is human tumor xenografts. The note with it: several human tumor xenografts implanted in nude mice. Background: Xenograft models place foreign cells or tissue in a host animal.
For series [5], the system named is extensive-stage SCLC. The note with it: 45 mg/m^2 on days 1 to 3; chemotherapy-naive patients; intent-to-treat analysis.
Series [6] relates to stage III or IV non-SCLC. To be noted: 45 mg/m^2 on days 1 to 3; chemotherapy-naive patients; intent-to-treat analysis.
The conditions of series [7]: a specific crystalline form (JP 11-222497 A).

Take `CC(=O)[C@]1(N)Cc2c(O)c3c(c(O)c2[C@@H](O[C@H]2C[C@H](O)[C@H](O)CO2)C1)C(=O)c1ccccc1C3=O` [amrubicin, (7S,9S)-9-Acetyl-9-amino-7-[(2-deoxy-β-D-erythro-pentapyranosyl)oxy]-7,8,9,10-tetrahydro-6,11-dihydroxy-5,12-nephthacenedione]: in series [1], the “strength as a DNA intercalator relative to doxorubicin (weaker)” value is “approximately 1/10”. In series [2], the “grade 3 or 4 anemia” value is reported as 23.0%, the “grade 3 or 4 anorexia” value was 4.9%, the “grade 3 or 4 leukopenia” value is recorded as 52.5% and the “grade 3 or 4 nausea/vomiting” value is 4.9%. Besides, in series [2], the “grade 3 or 4 neutropenia” value is recorded as 72.1% and the “grade 3 or 4 thrombocytopenia” value is given as 14.8%. The cardiotoxicity result in series [3] is recorded as “almost no cardiotoxicity”. Further, the “antitumor activity compared with doxorubicin” value in series [4] is “more potent antitumor activity than doxorubicin”. For the same compound, the “response rate, extensive-stage SCLC” value in series [5] is reported as 79%. Also, in series [6], the “response rate, stage III or IV non-SCLC” value is given as 25%.
Turning to `CC(=O)[C@]1(N)Cc2c(O)c3c(c(O)c2[C@@H](O[C@H]2C[C@H](O)[C@H](O)CO2)C1)C(=O)c1ccccc1C3=O.Cl` [Amrubicin hydrochloride], the heat stability entry in series [7] is given as “excellent in heat stability”.
For the compound `CC(O)[C@]1(N)Cc2c(O)c3c(c(O)c2[C@@H](O[C@H]2C[C@H](O)[C@H](O)CO2)C1)C(=O)c1ccccc1C3=O` (stereo partly shown) [amrubicinol], the “strength as a DNA intercalator relative to doxorubicin (weaker)” value in series [1] is “approximately 1/10”.
